Data taken from US20230340530A1, “Methods of Protecting RNA” (Pfizer Inc., priority 2020, published 2023).

How the values were obtained:
[1] = RNA FP protection counter screen assay; settings: counter screen for false positives, n=2
Protocol: (§1) In the FP assay, fluorophores were added to the 3′ and 5′ end of a short RNA construct and incubated with a boron compound under accelerated degradation conditions (e.g., base and temperature). For intact RNA, the 2 fluorophores come together to produce fluorescence. When the RNA is cleaved, there is no fluorescence. […] The counter screen assay run for each boron compound was used as control.

[2] = test system: random 30nt RNA oligonucleotide with a 5′ Cy5 fluorophore and a 3′ Biotin (SEQ ID NO: 9); experiment: RNA Fluorescence Polarization (FP) protection assay; assay type: biochemical; settings: 62.5 mM NaOH, 18 hours, dose response 600 µM top dose, n=2
Protocol: as §1
The RNA FP protection assay used a random 30nt RNA oligonucleotide (oligo) with a 5′ Cy5 fluorophore and a 3′ Biotin of the following sequence: 5′-Cy5-
In the presence of excess streptavidin, the RNA oligo will bind to the streptavidin and rotational spin will decrease causing an increase in the mP value in a fluorescence polarization (FP) measurement. When the RNA backbone is hydrolyzed under base mediated hydrolysis with increasing pH the Cy5 fluorophore will be free to spin faster lowering the mP value in an FP measurement. Compounds that inhibit base mediated hydrolysis will prevent release of Cy5 and reduction in mP value. […]
With regard to the plots provided in FIGS. 2-7, the detection for this assay used the fluorescent polarization of the fluorescent dye used in the assay. When a fluorescent dye has a high mass the spin rate is low and when the fluorescence is measured using two polarizing filters one parallel and one perpendicular the amount of spin can be measured. The unit Polarization was measured as mili-Polarization (mP). A dye with high mass will have a high mP reading and low mass will have a low mP reading. Streptavidin was added to bind to the biotin-RNA-Cy5 oligo to achieve high mass and the high mP reading. […] When a boron compound dose provides 100% activity, the RNA is intact/protected and the mP value measured is high. […]
To all wells in a compound spotted assay ready plate (Coming #3820) were added 2.5 µL of a 2x Biotin-RNA-Cy5 (Genescript custom #SC1518) and Streptavidin (ThermoFisher#21135) made in nuclease free water, incubated for 20 minutes, 2.5 µL of 50 mM Tris pH 7.2 was added to the positive control wells, and 2.5 µL 125 mM NaOH was added to all other wells. […]

[3] = target: RNA samples (Chi18 or HCV IRES); experiment: Droplet Digital Polymerase Chain Reaction (ddPCR) assay of RNA protection; assay type: biochemical; settings: 50 mM Tris buffer pH 11.4, 16 hrs at 30° C. for Chi18 or 42° C. for HCV; table does not say which RNA; 600 µM to 0.018 µM compound, 2% DMSO; read-out: EC50 Values Obtained from the ddPCR Assay
Protocol: The ddPCR assays measured RNA integrity by converting intact RNA to cDNA by reverse transcription, then performing digital PCR in thousands of nanoliter-sized droplets for each sample. PCR was performed within each droplet, which allowed for more sensitive detection of subtle changes in RNA concentration compared to traditional PCR or qPCR. Additionally, primers/probes specific to the 5′ end of the RNA/cDNA transcript(s) were used to assess fragment integrity, i.e. degraded RNA had fewer 5′ positive droplets. The BioRad QX200 Droplet Digital PCR System was used for the ddPCR workflow.
RNA samples (Chi18 or HCV IRES) were diluted to 100 fg/µL in 50 mM Tris buffer pH 11.4. Boron compounds were tested in a dose-response format to determine EC50. A compound dilution plate that contained a 30 mM top concentration of compound in DMSO was serially (half-log) diluted 10 times. A quantity of 0.12 µL of this compound dilution plate was spotted into a 96-well PCR plate (Thermo). Sample RNAs were added (6 µL) and incubated with test compounds as described below. Final compound concentrations ranged from 600 µM to 0.018 µM in 2% DMSO.
For the degradation reaction, treated RNAs were incubated for 16 hrs at 30° C. for Chi18 samples or 42° C. for HCV samples. Upon completion of the degradation reaction, cDNA was made and ddPCR run for each sample (96 well plates). Positive 5′ droplet values were divided by the total accepted droplet values for each sample and a ratio value generated for each sample.
Data was imported into a database where percent (%) protection and compound EC50 were calculated and curated. […] EC50 was determined by using a four parameter logistic equation: Y=A+((B-A)/(1+(C/X)D)); where Y is percent protection, X is compound concentration, A and B are minimum and maximum asymptotes, respectively, C is EC50, and D is Hill slope.

Compound | activity in the RNA FP protection counter screen [1] | ability of the boron compound to protect RNA from being cleaved/degraded (percent activity, FP) [2] | EC50 [3] [µM]
CC1(C)OB(O)c2cc(C(=O)O)ccc21 [PF-06966741, 1-hydroxy-3,3-dimethyl-1,3-dihydrobenzo[c][1,2]oxabor ole-6-carboxylic acid] | lack of activity | RNA protective effect | 
NCc1cc(C(F)(F)F)ccc1Oc1ccc2c(c1)COB2O [PF-06967658, 5-(2-(aminomethyl)-4-(trifluoromethyl)phenoxy)be nzo[c][1,2]oxaborol-1 (3H)-ol] | lack of activity | RNA protective effect | 
CC1(C)OB(C2(B3OC(C)(C)C(C)(C)O3)CCCCC2)OC1(C)C [PF-07230998, 2,2′-(cyclohexane-1,1-diyl)bis(4,4,5,5-tetramethyl-1,3,2-dioxaborolane)] | lack of activity | RNA protective effect | 
bis(acetato-kappaO)[1-cyclopropyl-6,7-difluoro-8-methyl-4-(oxo-kappaO)-1,4-dihydroquinoline-3-carboxylato-kappaO]boron [PF-04743686] |  |  | 271
